Read-outs that look alike come from different tables or passages of the source. Values belong to the compound of their own block, whether it stands above or below them.
Assays:
[1] = cited from earlier work; for elimination through the biliary system: predominantly renal elimination
[2] = cited from earlier work
[3] = 17O NMR water exchange (residence time of water co-ligand); format: physicochemical; conditions: 17O NMR at 11.7T; for τM^310K, mean residence time of the water co-ligand at 310 K: q = 1 assumed
Procedure: (§1) Relaxivity measurements were performed on a Bruker mq60 Minispec at 1.41T and 37 °C. Longitudinal (T1) relaxation times were measured using an inversion recovery experiment with 10 inversion times of duration ranging between 0.05 × T1 and 5 × T1. Transverse (T2) relaxation times were measured using a CPMG pulse sequence. Relaxivity (r1, r2) was determined from the slope of a plot of 1/T1,2 vs [Gd] for at least 4 concentrations of Gd(III) (data shown in Supplementary Figs. 93–110). The T2 relaxation times of ^17O at 11.7T were estimated from the full-width at half-height of the H2^17O resonance at temperatures ranging from 278 to 368K. Reduced relaxation rates (1/T2r) were calculated by taking the difference of 1/T2 measured in the presence and absence of Gd(III) and dividing by the mole fraction of coordinated water molecules, assuming q = 1. […] However, at the high magnetic field used, and because of the very-fast water exchange rates observed, there was negligible contribution of T1e, and the data were refit to a two-parameter model using the water exchange rate at 310K (τM) and enthalpy of activation for water exchange (ΔH^‡) as adjustable parameters. The Gd-O hyperfine coupling constant, A/ħ, was assumed to be -3.8 × 10^6 rad s^−1 [57], [58]. Samples were prepared in neat H2O adjusted and enriched with a small amount of H2^17O.

[4] = Relaxivity measurements at 1.41T and 37 °C; format: physicochemical
Procedure: as §1

Structure (SMILES): O=C([O-])CN(CCN(CC(=O)[O-])CC(=O)[O-])CCN(CC(=O)[O-])C(COCc1ccccc1)C(=O)[O-].[Gd+3] (centres unmarked) [Gd-BOPTA]
elimination through the biliary system [1]: < 10%

Structure (SMILES): C[C@H](C(=O)[O-])N1CCN([C@H](C)C(=O)[O-])CCN([C@H](C)C(=O)[O-])CCN([C@H](C)C(=O)[O-])CC1.[Gd+3] [Gd-DOTMA]
ΔH^‡ ([2]; SAP isomer): 12.8 ± 0.693 kcal/mol | τM^310K ([2]; SAP isomer): 156 ns | ΔH^‡ ([2]; TSAP isomer): 9.63 ± 0.526 kcal/mol | τM^310K ([2]; TSAP isomer): 26 ns

Structure (SMILES): CCOc1ccc(C[C@@H](CN(CCN(CC(=O)[O-])CC(=O)[O-])CC(=O)[O-])N(CC(=O)[O-])CC(=O)[O-])cc1.[Gd+3].[Na+].[Na+] [Gd-EOB-DTPA]
biliary clearance share ([1]; mixed clearance): 50% | renal clearance share ([1]; mixed clearance): 50%

Structure (SMILES): O=C([O-])CN1CCN(CC(=O)[O-])CCN(CC(=O)[O-])[C@@H](Cc2ccc([N+](=O)[O-])cc2)CN(CC(=O)[O-])CC1.[Gd+3] [Gd-NB-DOTA]
ΔH^‡ ([2]; Mix of isomers): 8.48 kcal/mol | τM^310K ([2]; Mix of isomers): 111 ns

Structure (SMILES): C[C@H](C(=O)[O-])N1CCN([C@H](C)C(=O)[O-])CCN([C@H](C)C(=O)[O-])[C@@H](Cc2ccc([N+](=O)[O-])cc2)CN([C@H](C)C(=O)[O-])CC1.[Gd+3] [Gd-NB-DOTMA(S-RRR)]
ΔH^‡ ([2]; S-SSSS = SAP, S-RRR = TSAP): 6.62 kcal/mol | τM^310K ([2]; S-SSSS = SAP, S-RRR = TSAP): 9.4 ns

Structure (SMILES): C[C@@H](C(=O)[O-])N1CCN([C@@H](C)C(=O)[O-])CCN([C@@H](C)C(=O)[O-])[C@@H](Cc2ccc([N+](=O)[O-])cc2)CN([C@@H](C)C(=O)[O-])CC1.[Gd+3] [Gd-NB-DOTMA(S-SSSS)]
ΔH^‡ ([2]; S-SSSS = SAP, S-RRR = TSAP): 6.31 kcal/mol | τM^310K ([2]; S-SSSS = SAP, S-RRR = TSAP): 77 ns

Structure (SMILES): O=C([O-])CN(CCN(CC(=O)[O-])C[C@H](COP(=O)([O-])OC1CCC(c2ccccc2)(c2ccccc2)CC1)N(CC(=O)[O-])CC(=O)[O-])CC(=O)[O-].[Gd+3].[H+].[H+].[H+] [MS-325]
blood half-life [1]: unusually long | serum albumin binding [1]: extensive serum albumin binding | elimination through the biliary system [1]: < 10%

ΔH^‡, enthalpy change of activation of water exchange [3]: 7.89 ± 0.502 kcal/mol | τM^310K, mean residence time of the water co-ligand at 310 K [3]: 8.1 ± 0.4 ns | r1 relaxivity ([4]; 4.5% w/v HSA (1.4T)): 4.5 mM⁻¹ s⁻¹ | r1 relaxivity ([4]; Human Plasma (1.4T)): 4.6 mM⁻¹ s⁻¹ | r1 relaxivity ([4]; Water (1.4T)): 3.9 mM⁻¹ s⁻¹
Structure (SMILES): CC[C@@H]1CN(CC(=O)[O-])[C@H](CC)CN(CC(=O)[O-])[C@H](CC)CN(CC(=O)[O-])[C@H](CC)CN1CC(=O)[O-].[Gd+3] [[Gd(R)L2A]^−]

ΔH^‡, enthalpy change of activation of water exchange [3]: 2.87 ± 0.406 kcal/mol | τM^310K, mean residence time of the water co-ligand at 310 K [3]: 2.9 ± 0.1 ns | r1 relaxivity ([4]; 4.5% w/v HSA (1.4T)): 4.8 mM⁻¹ s⁻¹ | r1 relaxivity ([4]; Human Plasma (1.4T)): 4.9 mM⁻¹ s⁻¹ | r1 relaxivity ([4]; Water (1.4T)): 3.9 mM⁻¹ s⁻¹
Structure (SMILES): CC[C@@H]1CN(CC(=O)[O-])[C@H](CC)CN(CC(=O)[O-])[C@H](CC)CN(CC(=O)[O-])[C@H](CC)CN1CC(=O)[O-].[Gd+3] [[Gd(R)L2B]^−]
